The values below come from US11129801B2 (SigmaThera SAS, priority 2016, dated 2021).

One experiment concerns sigma-1R. The conditions noted are these: cited from earlier work.
Experiment [1] deals with sigma-1 receptor / BiP complex. The experiment in a line: Dissociation of BiP from sigma-1 receptor in CHO cells. It is filed as cell-based. The conditions noted are these: 10 μM NE100 with 10 μM igmesine. On the procedure:
CHO cells were grown in a 6-well plates and treated with the compounds in culture medium at 37° C. for 30 min at 1 μM and 10 μM final concentration. The reaction was stopped by medium removal and adding 3 mL PBS at 37° C. CHO cells were harvested and suspended in 50 mM HEPES (pH7.4) followed by cross-linking with 50 μg/ml of dithio (bis) succinimidyl propionate (Thermo Fisher Scientific, Waltham, Mass.) for 30 min at 4° C. The reaction was stopped by adding Tris-HCl (pH 8.8, final 50 mM). Fifteen minutes after incubation on ice, cells were lysed with RIPA buffer [50 mM Tris (pH7.4), 150 mM NaCl, 1% Triton X-100, 0.3% sodium deoxycholate, 0.1% SDS, protease inhibitor cocktail (Roche Complete)]. After centrifugation at 12,000 g, 1 min, the supernatant was incubated overnight at 4° C. with Sig-1R antibody (Abcam). The cell lysate was incubated with Sepharose protein-A (Invitrogen) for 90 min. After centrifugation at 12,000 g, 1 min, the supernatant was discarded and the pellet was washed in 0.5 mL RIPA buffer. After a second centrifugation at 12,000 g, 20 min, the supernatant was discarded and the pellet was washed in 0.5 mL 2× Sample buffer/bMCE buffer. Following a third centrifugation at 12,000 g, 1 min, the supernatant was analysed by ELISA assay, according to the manufacturer's protocol (USCNK #SEC343Mu).

The test system of experiment [2] is Aβ25-35 mouse model of Alzheimer's disease. Kind of experiment: Aβ25-35 mouse model, overall neuroprotection (summary statements). It is filed as in vivo. The conditions noted are these: versus usual doses; ibuprofen, atorvastatin after allometric scaling mouse to human. On the procedure: (§1) The compound efficacy was evaluated 7 days after the peptide administration on the attenuation of the Aβ25-35-induced learning deficits (spatial working memory using the spontaneous alternation in the Y-maze test, and contextual long-term memory using the passive avoidance test).
(§2) The mice were tested 7 days post injection or at the indicated time points.
(§3) In Experiment 2, twelve mice per experimental group were administered Sc.Aβ or Aβ25-35-amyloid peptide on day 0 by i.c.v. injection. […] Animals were tested at day 7 and later.
(§4) The synergy/additivity/antagonism was evaluated by calculating the combination index. […] Animals were then tested at day 7 and later.
(§5) Animals were tested at day 7 and later.
(§6) For each of Experiments 1-4, on day 7, all animals were tested for the spontaneous alternation performance in the Y-maze test, an index of spatial working memory. On day 8 and 9, the contextual long-term memory of the animals was assessed using the step-through type passive avoidance procedure. On day 9, immediately after the retention session, animals were sacrificed by decapitation and the hippocampus and cortex dissected out. Lipid peroxidation was analyzed in the hippocampus, whereas neuroinflammation, apoptosis, amyloid burden and hyperphosphorylation of tau protein were analyzed in cortex.

Experiment [3] has the same test system. The experiment in a line: Spontaneous alternation in the Y-maze, Aβ25-35 mouse model. It is filed as in vivo. The conditions noted are these: for protection from injury produced by Aβ25-35 treatment, single agent: Experiment 4, i.p. day 1 to day 6, dose dependent; for highest sub-active dose, spontaneous alternation: Experiment 3, i.p. Here is the method: as §1, §2, §3, §4, §5, §6
The homogeneous oligomeric preparation of Aβ25-35 peptide was performed according to the AMYLGEN's own procedure. Each mouse was anesthetized with isoflurane 2.5% and injected i.c.v. with Aβ25-35 peptide (9 nmol/mouse) or Sc.Aβ peptide (9 nmol/mouse), in a final volume of 3 μl/mouse, according to the previously described method (Maurice T, et al. (1996). Brain Res. 706(2): 181-193, Maurice T, et al. (1998) Neuroscience 83(2): 413-428, Meunier J, et al. (2006) British J. Pharmacol. 149(8): 998-1012, Villard V, et al. (2009) Neuropsychopharmacology 34(6): 1552-1566, Villard V, et al. (2011) J. Pharmacol. Sci. 115(3): 279-292).
Animals: Male Swiss mice, 6 weeks old and weighing 30-35 g, from JANVIER (Saint Berthevin, France), were kept for housing and experiments took place within the animal facility building of the University of Montpellier 2 (CECEMA, Office of Veterinary Services agreement #B-34-172-23). Animals were housed in groups with access to food and water ad libitum, except during behavioral experiments. They were kept in a temperature and humidity controlled animal facility on a 12 h/12 h light/dark cycle (lights off at 07:00 pm). Mice were numbered by marking their tail using permanent markers. All animal procedures were conducted in strict adherence to the European Union directive of Sep. 22, 2010 (2010/63/UE). Diagnostic summary reports of JANVIER were annexed to the study report.
Spontaneous alternation performance: Immediate working memory performance was assessed by recording spontaneous alternation behavior during a single session in a Y-maze as described previously (Itoh J, et al. (1993) Eur J Pharmacol 236(3): 341-345; Hiramatsu M and Inoue K (1999) Br J Pharmacol 127(3): 655-660). The Y-maze is made of grey polyvinylchloride. Each arm of the Y-maze was 40 cm long, 3 cm wide, and 13 cm high at the bottom, 10 cm wide at the top, and converging at an equal angle. Each mouse was placed at the end of one arm and allowed to move freely through the maze during an 8 min session. The series of arm entries, including possible returns into the same arm, was checked visually. An alternation was defined as entries into all three arms on consecutive occasions. The number of maximum alternations is therefore the total number of arm entries minus two and the percentage of alternation was calculated as (actual alternations/maximum alternations)×100. Parameters included the percentage of alternation (memory index) and total number of arm entries (exploration index).

For the compound `CCC(C/C=C/c1ccccc1)(c1ccccc1)N(C)CC1CC1` (stereo not shown) [JO-1783, reference compound], the “potency relative to igmesine at the binding site” value in the experiment on sigma-1R is “ten times less potent”.

For `CCCN(CCC)CCc1ccc(OC)c(OCCc2ccccc2)c1` [NE100, reference compound], the “antagonism of igmesine-induced BiP dissociation” value in experiment [1] was “prevented”.

Take `CC(C)c1c(C(=O)Nc2ccccc2)c(-c2ccccc2)c(-c2ccc(F)cc2)n1CC[C@@H](O)C[C@@H](O)CC(=O)O` [atorvastatin, reference compound]: the “lowering of the partner drug's dose when associated with igmesine” value (“lowering of the partner drug's dose” below) in experiment [2] came to 10 fold. For the same compound, the “protection from injury produced by Aβ25-35 treatment, single agent” value (shortened to “protection from injury produced”) in experiment [3] was “able to protect”.

As for `COc1cc2c(cc1OC)C(=O)C(CC1CCN(Cc3ccccc3)CC1)C2` (stereo not shown) [donepezil, reference compound], in experiment [2], the “lowering of the partner drug's dose” value was found to be 4 fold. Further, the “highest sub-active dose, spontaneous alternation” value in experiment [3] came out at 0.25 mg/kg.

As for `CC(C)Cc1ccc(C(C)C(=O)O)cc1` (stereo not shown) [ibuprofen, reference compound], in experiment [2], the “lowering of the partner drug's dose” value is 3 fold. In experiment [3], the “protection from injury produced” value is on record as “able to protect”.

`CC12CC3CC(C)(C1)CC(N)(C3)C2` [memantine]: the “highest sub-active dose, spontaneous alternation” value in experiment [3] amounted to 0.5 mg/kg.

As to `C#CCN(C)[C@H](C)Cc1ccccc1` [selegiline], in experiment [3], the “protection from injury produced” value was “able to protect”.
